# Reference: patent US9345742B2, “Aminostatin derivatives for the treatment of arthrosis” (MERCK PATENT GMBH, priority 2011, dated 2016)
# Numbered stars: 1 amine (or outer) side, 2 acyl side, 3 side chain; on linkers, the order of the positions; unused ones are H or OH. Square brackets hold non-standard residues; d marks the D form. Peptide text beside a SMILES is read from it. * marks the point of attachment. X1 = N[C@@H](CC(=O)[*:2])[C@H](Cc1ccccc1)N[*:1]; 1Nal = N[C@@H](Cc1cccc2ccccc12)C(=O)O; Tle = CC(C)(C)[C@H](N)C(=O)O; Isovaleryl = CC(C)CC(=O)*; Ac3c = NC1(C(=O)O)CC1
# Experiments:
# [1] = target: recombinant human renin (Homo sapiens (Human), UniProt P00797); assay: In-vitro fluorescence assay for identification of renin-inhibitory activity; assay type: biochemical; details: recombinant human renin 10 nM, pH 7.2; read-out: Renin selectivity IC50
# Sequence of recombinant human renin (P00797 67-406): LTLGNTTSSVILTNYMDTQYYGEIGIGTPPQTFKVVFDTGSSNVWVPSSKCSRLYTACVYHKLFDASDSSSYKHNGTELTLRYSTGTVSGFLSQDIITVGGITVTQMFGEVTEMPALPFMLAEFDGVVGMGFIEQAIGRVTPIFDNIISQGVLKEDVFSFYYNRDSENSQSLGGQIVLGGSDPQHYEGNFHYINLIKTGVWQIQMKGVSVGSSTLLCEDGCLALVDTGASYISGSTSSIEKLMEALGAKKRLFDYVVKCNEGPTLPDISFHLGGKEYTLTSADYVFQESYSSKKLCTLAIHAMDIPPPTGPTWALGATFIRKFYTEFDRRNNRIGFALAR
# Protocol: In order to identify modulators of renin activity, a continuous enzymatic test was carried out with a synthetic peptide which carries a fluorescent group Edans (=(5-(aminoethyl)aminonaphthalenesulfonate) which is quenched by energy transfer from a Dabcyl (4′-dimethylaminoazobenzene-4-carboxylate) group on the same molecule, in Greiner 384-well microtitre plates. Cleavage of the peptidic substrate by renin causes an increase in the fluorescence intensity. In order to determine the efficacy of substances, the time-dependent increase in the fluorescence intensity in the presence of the substance was compared with the time-dependent increase in fluorescence in the absence of substances. The reference substance used was renin inhibitor 2 (Z-Arg-Arg-Pro-Phe-His-Sta-Ile-His N-Boc-Lys methyl ester Z) (Sigma-Aldrich). The substrate used was renin FRET substrate I (DABCYL-g-Abu-[…]EDANS) (Anaspec, Fremont Calif.). The enzyme employed was recombinant human renin (Proteos, Kalamazoo, Mich.) in a final concentration of 10 nM. The test was carried out in 50 mM Mops buffer, 1.5% (v/v) of DMSO, 0.1% (w/v) of Igepal®, pH 7.2, 0.5% (w/v) of BSA. 2 μl of each substance solution with serially diluted substance concentration were added to in each case 4 μl of renin solution and incubated at room temperature for 15 min. The reaction was started by addition of 4 μl of substrate solution (final concentration 5 μM). After carrying out a starting-point fluorescence measurement (excitation wavelength 340 nm/emission wavelength 495 nm) using an Envision multilabel reader (Perkin Elmer), the reaction was incubated at 37° C. for 60 min. The amount of peptide fragment cleaved off during the reaction time was subsequently measured by determination of the increase in the fluorescence intensity at 495 nm (excitation wavelength 340 nm).
# [2] = target: cathepsin D isolated from the human liver (Homo sapiens (Human), UniProt P07339); assay: In-vitro fluorescence assay for identification of cathepsin D inhibitors; assay type: biochemical; details: cathepsin D 1.4 nM, pH 5.5; read-out: CatD assay IC50-
# Sequence of cathepsin D isolated from the human liver (P07339 65-161): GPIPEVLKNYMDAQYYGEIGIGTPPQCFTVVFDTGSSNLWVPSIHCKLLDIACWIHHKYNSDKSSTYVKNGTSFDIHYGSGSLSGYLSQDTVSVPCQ
# Sequence of cathepsin D isolated from the human liver (P07339 169-412): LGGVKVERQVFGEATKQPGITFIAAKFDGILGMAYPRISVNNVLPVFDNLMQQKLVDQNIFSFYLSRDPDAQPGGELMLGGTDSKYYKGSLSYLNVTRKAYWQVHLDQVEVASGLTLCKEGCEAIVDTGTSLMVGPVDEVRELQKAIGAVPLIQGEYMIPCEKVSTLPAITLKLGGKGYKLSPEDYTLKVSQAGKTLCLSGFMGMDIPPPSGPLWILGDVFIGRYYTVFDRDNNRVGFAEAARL
# Protocol: In order to identify modulators of cathepsin D activity, a continuous enzymatic test was carried out with a synthetic peptide which carries a fluorescent group (MCA=(7-methoxycoumarin-4-yl)acetyl) which is quenched by energy transfer from a Dpn (2,4 dinitrophenyl) group on the same molecule, in Greiner 384-well nb microtitre plates. Cleavage of the peptidic substrate by cathepsin D causes an increase in the fluorescence intensity. In order to determine the efficacy of substances, the time-dependent increase in the fluorescence intensity in the presence of the substance was compared with the time-dependent increase in fluorescence in the absence of substances. The reference substance used was pepstatin A (Sigma-Aldrich). The substrate used was […](Dnp)d-R—NH2 (Enzo Life Sciences, Lörrach). The enzyme employed was cathepsin D isolated from the human liver (Sigma-Aldrich) in a final concentration of 1.4 nM. The test was carried out in 100 mM sodium acetate buffer, 1.25% (v/v) of DMSO, 0.25% (w/v) of Chaps, pH 5.5. 2 μl of each substance solution with serially diluted substance concentration were added to in each case 4 μl of cathepsin D solution and incubated at room temperature for 10 min. The reaction was started by addition of 2 μl of substrate solution (final concentration 5 μM). After carrying out a starting-point fluorescence measurement (excitation wavelength 340 nm/emission wavelength 450 nm) using an Envision multilabel reader (Perkin Elmer), the reaction was incubated at room temperature for 60 min. The amount of peptide fragment cleaved off during the reaction time was subsequently measured by determination of the increase in the fluorescence intensity at 450 nm (excitation wavelength 340 nm).
IC50 [1] [nM],IC50 [2] [nM],SMILES
> 30000,81,"CC[C@H](C)[C@H](NC(=O)C[C@H](N)[C@H](Cc1ccccc1)NC(=O)[C@@H](NC(=O)Cc1cccc(NS(C)(=O)=O)c1)C(C)C)C(=O)N[C@H](C(=O)OC)C(C)C [Compound 9, Methyl (S)-2-[(2S,3S)-2-((3S,4S)-3-amino-4-{(S)-2-[2-(3-methanesulfonylamino-phenyl)-acetylamino]-3-methylbutyrylamino}-5-phenylpentanoylamino)-3-methyl-pentanoylamino]-3-methylbutyrate]"
> 30000,610,"CC[C@H](C)[C@H](NC(=O)C[C@H](N)[C@H](Cc1ccccc1)NC(=O)[C@H](Cc1ccccc1)NC(=O)[C@H](CC(C)C)NC(=O)CC(C)C)C(=O)N[C@H](C(=O)OC)C(C)C [Compound 11, Methyl (S)-2-[(2S,3S)-2-((3S,4S)-3-amino-4-{(S)-2-[(S)-4-methyl-2-(3-methylbutyrylamino)pentanoylamino]-3-phenyl-propionylamino}-5-phenylpentanoylamino)-3-methylpentanoylamino]-3-methyl-butyrate] (Isovaleryl-LF[X1]IV-OMe)"
> 30000,110,"CCOC(=O)C1(NC(=O)[C@@H](NC(=O)C[C@H](N)[C@H](Cc2ccccc2)NC(=O)[C@@H](NC(=O)[C@H](CC(C)C)NC(=O)CC(C)C)C(C)C)[C@@H](C)CC)CC1 [Compound 12, Ethyl 1-[(2S,3S)-2-((S)-3-(S)-amino-4-((S)-3-methyl-2-[(S)-4-methyl-2-(3-methyl-butyrylamino)pentanoylamino]butyryl-amino}-5-phenylpentanoylamino)-3-methyl-pentanoylamino] cyclopropanecarboxylate] (Isovaleryl-LV[X1]I[Ac3c]-OEt)"
> 30000,160,"CC[C@H](C)[C@H](NC(=O)C[C@H](N)[C@H](Cc1ccccc1)NC(=O)[C@@H](NC(=O)[C@H](CC(C)C)NC(=O)CC(C)C)C(C)C)C(=O)N[C@@H](CC(C)C)C(=O)OC [Compound 14, Methyl (S)-2-[(2S,3S)-2-((S)-3-(S)-amino-4-{(S)-3-methyl-2-[(S)-4-methyl-2-(3-methyl-butyrylamino)pentanoylamino]butyryl-amino}-5-phenylpentanoylamino)-3-methylpentanoylamino]-4-methylpentanoate] (Isovaleryl-LV[X1]IL-OMe)"
> 30000,5.7,"COC(=O)[C@@H](NC(=O)[C@H](Cc1ccccc1)NC(=O)C[C@H](N)[C@H](Cc1ccccc1)NC(=O)[C@@H](NC(=O)[C@H](CC(C)C)NC(=O)CC(C)C)C(C)C)C(C)C [Compound 15, Methyl (S)-2-[(S)-2-((3S,4S)-3-amino-4-{(S)-3-methyl-2-[(S)-4-methyl-2-(3-methyl-butyrylamino)pentanoylamino]butyryl-amino)-5-phenylpentanoylamino)-3-phenyl-propionylamino]-3-methylbutyrate] (Isovaleryl-LV[X1]FV-OMe)"
> 30000,3.7,"COC(=O)[C@@H](NC(=O)[C@H](Cc1cccc2ccccc12)NC(=O)C[C@H](N)[C@H](Cc1ccccc1)NC(=O)[C@@H](NC(=O)[C@H](CC(C)C)NC(=O)CC(C)C)C(C)C)C(C)C [Compound 28, Methyl (S)-2-[(S)-2-((3S,4S)-3-amino-4-{(S)-3-methyl-2-[(S)-4-methyl-2-(3-methyl-butyrylamino)pentanoylamino]butyryl-amino}-5-phenylpentanoylamino)-3-naphthalen-1-ylpropionylamino]-3-methylbutyrate] (Isovaleryl-LV[X1][1Nal]V-OMe)"
> 30000,180,"CC[C@H](C)[C@H](NC(=O)C[C@H](N)[C@H](Cc1ccccc1)NC(=O)[C@@H](NC(=O)[C@H](CC(C)C)NC(=O)CC(C)C)C(C)C)C(=O)NCc1ccccc1 [Compound 29, N-((1S,2S)-1-Benzylcarbamoyl-2-methylbutyl)-(S)-3-amino-4-{(S)-(S)-3-methyl-2-[(S)-4-methyl-2-(3-methylbutyrylamino)-pentanoylamino]butyrylamino}-5-phenylpentanamide]"
> 30000,400,"CC[C@H](C)[C@H](NC(=O)C[C@H](N)[C@H](Cc1ccccc1)NC(=O)[C@@H](NC(=O)[C@H](CC(C)C)NC(=O)CC(C)C)C(C)C)C(=O)NCC1CC1 [Compound 30, N-[(1S,2S)-1-(Cyclopropylmethyl-carbamoyl)-2-methylbutyl]-(S)-3-(S)-amino-4-{(S)-3-methyl-2-[(S)-4-methyl-2-(3-methylbutyrylamino)-pentanoylamino]butyrylamino}-5-phenylpentanamide]"
> 30000,120,"CC[C@H](C)[C@H](NC(=O)C[C@H](N)[C@H](Cc1ccccc1)NC(=O)[C@@H](NC(=O)[C@H](CC(C)C)NC(=O)CC(C)C)C(C)(C)C)C(=O)N[C@H](C(=O)OC)C(C)C [Compound 31, Methyl (S)-2-[(2S,3S)-2-((3S,4S)-3-amino-4-{(S)-3,3-dimethyl-2-[(S)-4-methyl-2-(3-methylbutyrylamino)pentanoylamino]-butyrylamino}-5-phenylpentanoylamino)-3-methylpentanoylamino]-3-methylbutyrate] (Isovaleryl-L[Tle][X1]IV-OMe)"
> 30000,12,"CC[C@H](C)[C@H](NC(=O)C[C@H](N)[C@H](Cc1ccccc1)NC(=O)[C@@H](NC(=O)Cc1cccc(OC(F)(F)F)c1)C(C)C)C(=O)N[C@H](C(=O)O)C(C)C [Compound 32, (S)-2-[(2S,3S)-2-((3S,4S)-3-Amino-4-{(S)-3-methyl-2-[2-(3-trifluoromethoxyphenyl)-acetylamino]butyrylamino}-5-phenyl-pentanoylamino)-3-methylpentanoyl-amino]-3-methylbutyric acid]"
> 30000,190,"CC(C)CCNC(=O)[C@H](C)NC(=O)C[C@H](N)[C@H](Cc1ccccc1)NC(=O)[C@@H](NC(=O)Cc1cccc(OC(F)(F)F)c1)C(C)C [Compound 35, N-[(S)-1-(3-Methylbutylcarbamoyl)-ethyl]-(3S,4S)-3-amino-4-{(S)-3-methyl-2-[2-(3-trifluoromethoxyphenyl)acetylamino]-butyrylamino}-5-phenylpentanamide]"
> 30000,230,"CCc1cccc(CC)c1NC(=O)C[C@H](N)[C@H](Cc1ccccc1)NC(=O)[C@@H](NC(=O)[C@H](CC(C)C)NC(=O)CC(C)C)C(C)C [Compound 38, N-(2,6-Diethylphenyl)-(3S,4S)-3-amino-4-{(S)-3-methyl-2-[(S)-4-methyl-2-(3-methyl-butyrylamino)pentanoylamino]butyryl-amino}-5-phenylpentanamide]"
> 30000,800,"CCc1cccc(CC)c1NC(=O)C[C@H](N)[C@H](Cc1ccccc1)NC(=O)[C@@H](NC(=O)CCCc1ccccc1)C(C)C [Compound 40, N-(2,6-Diethylphenyl)-(3S,4S)-3-amino-4-[(S)-3-methyl-2-(4-phenylbutyrylamino)butyrylamino]-5-phenylpentanamide]"
> 30000,48,"CC[C@H](C)[C@H](NC(=O)Cc1cccc(OC(F)(F)F)c1)C(=O)N[C@@H](Cc1ccccc1)[C@@H](N)CC(=O)N[C@H](C(=O)N[C@H](CO)C(C)C)[C@@H](C)CC [Compound 41, N-{(2S,3S)-1-[1-((S)-Hydroxymethyl)-2-methylpropylcarbamoyl]-2-methylbutyl)-3-(S)-amino-4-{(S)-(2S,3S)-3-methyl-2-[2-(3-trifluoromethoxyphenyl)acetylamino]-pentanoylamino}-5-phenylpentanamide]"
